Data on one compound can be found in ChEMBL document CHEMBL5528047, “A Potent SOS1 PROTAC Degrader with Synergistic Efficacy in Combination with KRASG12C Inhibitor” (J Med Chem, 2024).

Data set [1] concerns K562. Briefly: Antitumor activity against human K562 cells xenografted in NOD-SCID mouse assessed as tumor growth inhibition at 25 mg/kg, ip administered as 5 days on and 2 days off schedule for 21 days. It is filed as functional. The conditions noted are these: K562, 120 h, time 5 day, read-out: TGI. In general terms: Xenograft models place foreign cells or tissue in a host animal.

Data set [2] deals with T1, von Hippel-Lindau disease tumor suppressor/Son of sevenless homolog 1 (Homo sapiens, UniProt Q07889+P40337). In words: Protac activity at VHL/SOS1 in human K562 cells assessed as SOS1 degradation at 1 uM preincubated with BI3406 for 2 hrs followed by compound addition and measured after 2 hrs by Western blotting analysis. Format: cell-based. In general terms: A western blot detects proteins with antibodies after separation by electrophoresis.
Target sequence in this assay (P40337 whole entry, looked up, one chain of several): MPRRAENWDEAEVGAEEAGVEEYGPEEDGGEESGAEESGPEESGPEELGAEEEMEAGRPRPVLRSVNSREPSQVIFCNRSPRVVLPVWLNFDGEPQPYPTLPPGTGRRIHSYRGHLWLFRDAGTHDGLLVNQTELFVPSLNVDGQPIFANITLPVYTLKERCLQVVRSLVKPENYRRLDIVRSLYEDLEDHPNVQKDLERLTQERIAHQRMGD

Data set [3] in a line: AUC(0 to t) in ICR mouse at 10 mg/kg, po measured upto 24 hrs by LC-MS/MS analysis. Format: ADME, organism-based. The conditions noted are these: in vivo.
The test system of data set [4] is MIA PaCa-2. Briefly: Inhibition of ERK phosphorylation in human MIA PaCa-2 cells at 1 uM measured after 24 to 72 hrs in presence of AMG510 by Western blotting analysis. Format: cell-based. The conditions noted are these: time 24-72 hrs.
The subject of data set [5] is MIA PaCa-2. In words: Induction of apoptosis in human MIA PaCa-2 cells assessed as increase in cleaved caspase-3 level incubated for 24 hrs in presence of 4-((S)-4-acryloyl-2-methylpiperazin-1-yl)-6-fluoro-7-(2-fluoro-6-hydroxyphenyl)-1-(2-isopropyl-4-methylpyridin-3-yl)pyrido[2,3-d]pyrimidin-2(1H)-one by Western blotting assay. Format: functional, cell-based.
Data set [6] deals with T1, von Hippel-Lindau disease tumor suppressor/Son of sevenless homolog 1. In words: Protac activity at VHL/SOS1 in human MIA PaCa-2 cells assessed as SOS1 degradation at 1 uM incubated for 96 hrs by Western blotting analysis. It is filed as cell-based.
Target sequence in this assay (P40337 whole entry, looked up, one chain of several): as above
For data set [7], the target named is T2, Son of sevenless homolog 1 (Homo sapiens) (UniProt Q07889).
T2 sequence (whole entry): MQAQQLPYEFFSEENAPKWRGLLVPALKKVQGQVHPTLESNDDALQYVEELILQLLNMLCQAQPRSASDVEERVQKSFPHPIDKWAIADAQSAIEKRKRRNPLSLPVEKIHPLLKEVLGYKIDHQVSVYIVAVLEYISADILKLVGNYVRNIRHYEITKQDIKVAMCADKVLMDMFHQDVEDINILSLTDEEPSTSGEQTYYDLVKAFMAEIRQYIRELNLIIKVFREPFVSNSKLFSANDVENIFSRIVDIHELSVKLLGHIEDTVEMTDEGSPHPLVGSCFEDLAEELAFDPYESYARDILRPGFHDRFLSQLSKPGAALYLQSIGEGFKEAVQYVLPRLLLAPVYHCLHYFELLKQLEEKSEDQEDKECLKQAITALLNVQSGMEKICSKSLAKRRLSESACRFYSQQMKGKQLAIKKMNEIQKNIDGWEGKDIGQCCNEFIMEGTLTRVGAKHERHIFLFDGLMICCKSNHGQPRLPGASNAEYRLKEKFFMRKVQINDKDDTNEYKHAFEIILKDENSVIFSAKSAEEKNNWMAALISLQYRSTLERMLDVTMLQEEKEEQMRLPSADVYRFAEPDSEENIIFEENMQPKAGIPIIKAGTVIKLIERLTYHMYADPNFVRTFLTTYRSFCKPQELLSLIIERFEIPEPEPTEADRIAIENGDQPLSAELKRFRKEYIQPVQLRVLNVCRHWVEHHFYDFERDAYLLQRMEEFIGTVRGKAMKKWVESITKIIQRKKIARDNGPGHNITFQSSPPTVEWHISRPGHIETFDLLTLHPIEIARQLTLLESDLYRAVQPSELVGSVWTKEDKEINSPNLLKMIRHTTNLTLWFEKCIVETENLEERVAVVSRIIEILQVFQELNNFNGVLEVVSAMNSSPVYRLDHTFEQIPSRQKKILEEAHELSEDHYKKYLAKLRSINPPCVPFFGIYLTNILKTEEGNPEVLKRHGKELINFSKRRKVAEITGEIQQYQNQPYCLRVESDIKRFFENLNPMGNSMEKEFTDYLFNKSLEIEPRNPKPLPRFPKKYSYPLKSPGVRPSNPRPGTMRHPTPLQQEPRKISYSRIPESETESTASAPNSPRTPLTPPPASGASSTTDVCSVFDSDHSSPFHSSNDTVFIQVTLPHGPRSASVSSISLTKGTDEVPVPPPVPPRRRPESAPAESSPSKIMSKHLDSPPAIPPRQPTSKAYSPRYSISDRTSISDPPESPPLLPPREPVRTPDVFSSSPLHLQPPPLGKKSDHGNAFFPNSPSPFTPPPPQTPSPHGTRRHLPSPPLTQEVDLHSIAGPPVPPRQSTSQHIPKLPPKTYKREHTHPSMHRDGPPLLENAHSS
In words: Induction of SOS1 degradation in human NCI-H358 cells at 1 uM measured upto 72 hrs by Western blotting analysis. Format: cell-based.

For data set [8], the target named is T1, von Hippel-Lindau disease tumor suppressor/Son of sevenless homolog 1. Briefly: Protac activity at VHL/SOS1 in human NCI-H358 cells assessed as SOS1 degradation incubated for 24 hrs by Western blotting analysis. Format: cell-based.
The test system of data set [9] is K562. Briefly: Downregulation of phosphorylated-ERK level in human K562 cells at 0.3 to 3 uM incubated for 24 hrs by Western blotting analysis. The conditions noted are these: dose 0.3-3 µM. It is filed as functional, cell-based.
The subject of data set [10] is MIA PaCa-2. Briefly: Induction of apoptosis in human MIA PaCa-2 cells assessed as increase in cleaved PARP-1 level incubated for 24 hrs in presence of 4-((S)-4-acryloyl-2-methylpiperazin-1-yl)-6-fluoro-7-(2-fluoro-6-hydroxyphenyl)-1-(2-isopropyl-4-methylpyridin-3-yl)pyrido[2,3-d]pyrimidin-2(1H)-one by Western blotting assay. Format: functional, cell-based.
Data set [11] relates to NCI-H358. In words: Antiproliferative activity against human NCI-H358 cells incubated for 6 days by CCK8 assay. It is filed as functional, cell-based. The conditions noted are these: NCI-H358, 144 h. In general terms: Tetrazolium assays rely on reduction of a dye to a coloured formazan, in cell work by metabolically active cells.
Data set [12] can be described thus: Cmax in ICR mouse at 10 mg/kg, po measured upto 24 hrs by LC-MS/MS analysis. It is filed as ADME, organism-based. The conditions noted are these: in vivo.
Data set [13] has as its target T1, von Hippel-Lindau disease tumor suppressor/Son of sevenless homolog 1. Briefly: Protac activity at VHL/SOS1 in human K562 cells assessed as SOS1 degradation at 1 uM preincubated with VHL ligand V1 for 2 hrs followed by compound addition and measured after 2 hrs by Western blotting analysis. Format: cell-based.
Target sequence in this assay (P40337 whole entry, looked up, one chain of several): as the sequence (P40337 whole entry, looked up, one chain of several) above
Data set [14] relates to NCI-H358. Briefly: Inhibition of ERK phosphorylation in human NCI-H358 cells at 1 uM measured after 24 to 72 hrs in presence of AMG510 by Western blotting analysis. Format: cell-based. The conditions noted are these: time 24-72 hrs.
The target in data set [15] is T1, von Hippel-Lindau disease tumor suppressor/Son of sevenless homolog 1. Briefly: Protac activity at VHL/SOS1 in human NCI-H358 cells assessed as maximum SOS1 degradation at 0.003 to 10 uM incubated for 24 hrs by Western blotting analysis. Format: cell-based. The settings on record: dose 0.003-10 µM.
Target sequence in this assay (P40337 whole entry, looked up, one chain of several): as the sequence (P40337 whole entry, looked up, one chain of several) above
For data set [16] the target is unchanged. Briefly: Protac activity at VHL/SOS1 in human MIA PaCa-2 cells assessed as SOS1 degradation at 1 uM preincubated with VHL ligand V1 for 2 hrs followed by compound addition and measured after 3 hrs by Western blotting analysis. It is filed as cell-based.
Target sequence in this assay (P40337 whole entry, looked up, one chain of several): as the sequence (P40337 whole entry, looked up, one chain of several) above
The subject of data set [17] is NCI-H358. Briefly: Synergistic antiproliferative activity against human NCI-H358 cells assessed as combination index incubated for 5 days in presence of 4-((S)-4-acryloyl-2-methylpiperazin-1-yl)-6-fluoro-7-(2-fluoro-6-hydroxyphenyl)-1-(2-isopropyl-4-methylpyridin-3-yl)pyrido[2,3-d]pyrimidin-2(1H)-one. The settings on record: time 5 day. It is filed as functional.

The test system of data set [18] is K562. In words: Downregulation of phosphorylated-MEK level in human K562 cells at 0.3 to 3 uM incubated for 24 hrs by Western blotting analysis. Format: functional, cell-based. The settings on record: dose 0.3-3 µM.

pIC50: −log10 of the molar value. Calls of active or inactive are those of the source. No cut-off for these calls is given here. Bounds are passed on as bounds.

Take `COc1cc2nc(C)nc(N[C@H](C)c3cc(N)cc(C(F)(F)F)c3)c2cc1OCCCCC(=O)N[C@H](C(=O)N1C[C@H](O)C[C@H]1C(=O)NCc1ccc(-c2scnc2C)cc1)C(C)(C)C`: the inhibition in vivo at 25 mg/kg in the data set on K562 [1] was determined as 72.3%. The outcome in [2], in data set [13] and in [16] was inactive. Further, in data set [3], the area under the curve AUC(0-t) (commonly exposure summed from dosing to a finite time, without extrapolation to infinity) at 24 h is 4260 ng·h/mL. Also, the inhibition entry in the data set on MIA PaCa-2 [4] and with NCI-H358 [14] was “Active” each time. The outcome (in the data set with MIA PaCa-2 [5]; in [6]; in data set [7]; in the data set with K562 [9]; in the data set with MIA PaCa-2 [10]; in the data set with K562 [18]) was Active. In addition, the Activity entry in data set [8] was “Dose-Dependent Effect”. The DC50 (as a rule, the concentration at which degradation of the target reaches its halfway point) in [8] amounted to 0.05 µM. Further, the pIC50 (in general, the IC50 on a negative log10 scale, so that one unit is a factor of ten) in the data set with NCI-H358 [11] is 5.61. In data set [12], the peak level (Cmax) was 1650 ng/mL. Besides, the Emax (in general, the greatest response seen or fitted, relative to the assay's reference) in data set [15] is greater than 90%. Besides, the CI in the data set on NCI-H358 [17] was less than 1.
